{"source": "patent US20250152559A1", "about": "“METHODS FOR TREATING MYC-AMPLIFIED CANCER” (The Governing Council of the University of Toronto, priority 2023, published 2025)", "key": {"EGR1": {"tested_on": "EGR1", "assay": "Western blotting of EGR1 expression", "type": "cell-based, human", "conditions": "BAY-treated tumor cells relative to control", "source_text": "A wide range of enriched biological processes were detected upon genetic loss of DHODH, including myogenic differentiation, apoptosis, DNA damage response and signaling via tumor necrosis factor α (TNFα).\nProtein lysates were isolated from approximately 500,000-1,000,000 cells. Pellets were rinsed with PBS and then lysed in RIPA buffer containing HALT™ protease inhibitor cocktail (ThermoFisher). Protein concentrations were quantified using the Bradford Assay (BioRad). Protein size was resolved via SDS-PAGE and then transferred to PVDF for immunoblotting. Rabbit polyclonal anti-DHODH (Cell Signaling Technologies; catalogue #80981), rabbit monoclonal anti-EGR1 (Cell Signaling Technologies; catalogue #4145), rabbit polyclonal anti-phospho-ERK1/2 Thr202/Tyr204 (Cell Signaling Technologies; catalogue #9101), rabbit monoclonal anti-phospho-4E-BP1 Thr37/46 (Cell Signaling Technologies; catalogue #2855) were used at a 1:1000 dilution. Mouse monoclonal anti-GAPDH (Abcam; catalogue #ab8245) was used at a 1:5000 dilution. For development, horse-radish peroxidase-conjugated secondary anti-mouse (BioRad; catalogue #1706516) and anti-rabbit antibodies (BioRad; catalogue #1706515) were used with BioRad Clarity ECL reagents. Quantification was performed by analyzing mean pixel density of each band and then normalizing to GAPDH loading control. […]"}, "[1]": {"tested_on": "de novo pyrimidine biosynthesis in flank tumor tissue", "assay": "LC-MS metabolome profiling of flank xenograft tissues of treated mice", "type": "in vivo", "conditions": "individual samples, listed as BAY", "protocol": "In parallel to these experiments, subcutaneous flank xenografts were engrafted into two cohorts of mice, which were treated with the vehicle or R2. […] To investigate the pharmacokinetics of BAY in vivo, its concentration in plasma and brain tissues of healthy mice was directly quantified using an LC-MS approach. BAY was detected in both brains and plasma of mice undergoing treatment, however the plasma concentrations exceeded those of the brain by approximately 10-fold (FIG. 5H-I). To determine whether treatment with BAY affects de novo pyrimidine biosynthesis in vivo, changes in pyrimidine metabolism were measured in the brain in comparison to tumor tissues from the flank (FIG. 5J-K). Although BAY treatment impacted de novo pyrimidine metabolism in vivo in both brain and tumor tissues, with a similar pattern observed in vitro (FIG. 4A), the effect size was stronger in peripheral tumor tissue in comparison to brain tissue. Such findings further reflect the limited capacity for BAY to accumulate within the brain.\nFor metabolome profiling of tissues, ˜5 mg tissue were homogenized in 225 μL of −20° C. cold, methanol using a Bullet Blender Tissue Homogenizer (NextAdvance, Inc.) Bullet for 3 min. The homogenate was vortexed for 20 s and 750 μL of −20° C. cold methyl tertiary-butyl ether (MTBE) was added, and the mixture was vortexed for 10 s and shaken at 4° C. for 5 min. Next, 188 μL room temperature water was added and vortexed for 20 s to induce phase separation. After centrifugation for 5 min at 14,000×g, the bottom polar phase was collected and dried down. Metabolite extracts were reconstituted in LC-MS grade water/acetonitrile (50:50; v:v), vortexed for 1 min, sonicated for 15 min, and centrifuged at 16,000×g and 4° C. for 15 min to remove insoluble debris.\nThe LC-MS metabolomics and lipidomics analyses of the 3 NSC and 3 MB cell lines and tissues were performed on a UPLC-MS system consisting of an Orbitrap IQ-X Tribrid coupled to a Horizon Vanquish UPLC system (Thermo Fisher Scientific). The lipidomics analysis was conducted in positive-ion mode with a spray voltage of 3.5 kV while the metabolomics analysis was conducted in negative-ion mode with a spray voltage of −2.5 kV. The following source conditions were identical in both analyses and were set as follows: Sheath gas flow rate, 50 arbitrary units; Aux. gas flow rate, 10 arbitrary units; Sweep gas flow rate, 1 arbitrary unit; Ion transfer tube temp., 300° C.; Vaporizer temp., 350° C. The following acquisition parameters were used for MS1 analysis in both methods: resolution, 120,000, AGC target, 4e5. The maximum IT was set at […] for the lipidomics analysis and 200 ms for the metabolomics analysis. Data-dependent MS/MS parameters for the lipidomics analyses: resolution, 30,000; AGC target, 7.5e4; maximum IT, Dynamic (54 ms); time between Master Scans, 0.6 s; isolation window, 1.0 m/z; NCE/stepped nce, 20, 30, 40; intensity threshold, 5e4; exclude isotopes, on; dynamic exclusion, 3.0 s. Data-dependent MS/MS parameters for the metabolomics analyses: resolution. 15,000; AGC target, 7.5e4; maximum IT, Dynamic (22 ms); time between Master Scans, 0.6 s; isolation window, 1.0 m/z; NCE/stepped nce, 20, 30, 40, 50; intensity threshold, 5e4; exclude isotopes, on; dynamic exclusion, 5.0 s. To increase the total number of MS/MS spectra in the lipidomics analysis, five runs with iterative MS/MS exclusions were performed using the AcquireX function in Xcalibur (Thermo Fisher Scientific). In the metabolomics analysis, three runs with iterative MS/MS exclusions were performed using the AcquireX function. For the lipidomics analysis, chromatographic separation was achieved using a Waters Acquity UPLC CSH C18 (100 mm×2.1 mm i.d.; 1.7 μm) column injecting 2 μL. […] The column was equilibrated for 2 min at 15% B. The flow rate was set to 250 μL/min. The column temperature was maintained at 65° C. […]"}, "[2]": {"conditions": "flank tumor tissue of BAY-treated mice"}}, "note": "“And” between values parts separate entries of the source, which are not always exact repeats. Equal entries are not always repeated."}
{"smiles": "CCn1c(CO)nn(-c2cc(O[C@@H](C)C(F)(F)F)c(C(=O)Nc3c(F)cccc3Cl)cc2F)c1=O", "note": "[BAY2402234]", "values": [{"measurement": "EGR1 protein expression", "setting": "EGR1", "result": "upregulated at the protein level"}, {"measurement": "Glutamine normalized peak intensity (Area)", "setting": "[1]; [2]", "result": "55492788 and 50587148 and 68843176 and 56207472"}, {"measurement": "N-Carbamoyl aspartic acid normalized peak intensity (Area)", "setting": "[1]; [2]", "result": "385157056 and 380028608 and 450759360 and 384681824"}, {"measurement": "Orotic acid normalized peak intensity (Area)", "setting": "[1]; [2]", "result": "33617724 and 35906864 and 46970420 and 34348420"}, {"measurement": "UDP-GluNAc normalized peak intensity (Area)", "setting": "[1]; [2]", "result": "2589539 and 2049874 and 3781049 and 10999488"}, {"measurement": "UTP normalized peak intensity (Area)", "setting": "[1]; [2]", "result": "4036 and 1148 and 5307 and 1474"}, {"measurement": "Uridine 5′-diphosphate (UDP) normalized peak intensity (Area)", "setting": "[1]; [2]", "result": "5654 and 1891 and 15124 and 5023"}, {"measurement": "Uridine 5′-monophosphate normalized peak intensity (Area)", "setting": "[1]; [2]", "result": "17895140 and 14218088 and 25187528 and 9202930"}, {"measurement": "Uridine normalized peak intensity (Area)", "setting": "[1]; [2]", "result": "1736921 and 2207031 and 3920911 and 1886173"}, {"measurement": "dihydroorotic acid normalized peak intensity (Area)", "setting": "[1]; [2]", "result": "119216720 and 62149264 and 89191448 and 46399468"}, {"measurement": "BAY-2402234 normalized peak intensity (Area)", "setting": "[1]", "result": "249608 and 266857 and 361684 and 146195"}]}
